In US9156811B2 (priority 2008, dated 2015):
Like-named read-outs stand apart in the source and are kept apart here.

Assays:
[1] = molecular target: T. brucei N-myristoyl transferase (Trypanosoma brucei brucei (strain 927/4 GUTat10.1), UniProt Q388H8); assay: biochemical; type: biochemical
[2] = molecular target: human NMT-1 (Homo sapiens (Human), UniProt P30419); assay: NMT enzyme inhibition scintillation proximity assay, human NMT-1; type: biochemical
[3] = tested on: Trypanosome (T. brucei brucei); assay: In-vitro antitrypanosomal efficacy assay (cell growth, resazurin); type: cell-based
[4] = molecular target: L. major N-myristoyl transferase (Leishmania major, UniProt Q4Q5S8); type: biochemical; details: Leishmania major NMT; value in parentheses; read-out: IC50 (μM) NMT Enzyme (LmNMT)
Sequence of L. major N-myristoyl transferase (Q4Q5S8 1-421): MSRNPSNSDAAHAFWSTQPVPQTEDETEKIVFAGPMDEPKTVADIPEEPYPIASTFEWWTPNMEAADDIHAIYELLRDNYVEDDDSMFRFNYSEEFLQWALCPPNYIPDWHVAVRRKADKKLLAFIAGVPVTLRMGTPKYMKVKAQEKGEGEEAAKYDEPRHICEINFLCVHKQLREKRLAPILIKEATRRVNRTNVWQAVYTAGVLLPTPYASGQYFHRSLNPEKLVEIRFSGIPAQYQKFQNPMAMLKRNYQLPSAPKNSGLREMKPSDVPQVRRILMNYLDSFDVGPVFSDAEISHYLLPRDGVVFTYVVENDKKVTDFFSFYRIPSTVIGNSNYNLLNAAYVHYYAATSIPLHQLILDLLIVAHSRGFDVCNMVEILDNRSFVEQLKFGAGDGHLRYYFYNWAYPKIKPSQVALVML

[5] = value with no enzyme tag in the cell, taken as T. brucei NMT, read-out: IC50 (μM) NMT Enzyme
[6] = T. brucei NMT, value without parentheses, read-out: IC50 (μM) NMT Enzyme (T. brucei NMT)
[7] = Human NMT-1, value in parentheses, read-out: IC50 (μM) NMT Enzyme (HuNMT-1)
[8] = T. brucei brucei, blood stream form, variant 221
[9] = read-out: IC50 (μM) NMT Enzyme (T. brucei NMT)

Sequence of human NMT-1 (P30419 whole entry): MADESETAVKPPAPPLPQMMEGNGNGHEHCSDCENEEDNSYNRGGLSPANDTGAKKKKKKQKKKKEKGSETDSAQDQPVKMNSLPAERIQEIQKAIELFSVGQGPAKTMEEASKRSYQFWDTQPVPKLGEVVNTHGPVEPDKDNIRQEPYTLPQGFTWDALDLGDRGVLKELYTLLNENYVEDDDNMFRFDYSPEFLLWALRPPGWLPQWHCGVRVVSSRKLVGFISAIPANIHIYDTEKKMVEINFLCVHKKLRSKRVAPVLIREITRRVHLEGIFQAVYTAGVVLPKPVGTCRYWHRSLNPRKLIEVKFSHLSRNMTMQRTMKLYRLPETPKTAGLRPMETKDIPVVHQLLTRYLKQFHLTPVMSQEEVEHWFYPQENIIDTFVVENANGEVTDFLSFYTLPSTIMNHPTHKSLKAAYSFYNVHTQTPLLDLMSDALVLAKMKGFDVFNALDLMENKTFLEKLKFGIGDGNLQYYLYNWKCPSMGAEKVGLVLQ
Sequence of T. brucei N-myristoyl transferase (Q388H8 1-446): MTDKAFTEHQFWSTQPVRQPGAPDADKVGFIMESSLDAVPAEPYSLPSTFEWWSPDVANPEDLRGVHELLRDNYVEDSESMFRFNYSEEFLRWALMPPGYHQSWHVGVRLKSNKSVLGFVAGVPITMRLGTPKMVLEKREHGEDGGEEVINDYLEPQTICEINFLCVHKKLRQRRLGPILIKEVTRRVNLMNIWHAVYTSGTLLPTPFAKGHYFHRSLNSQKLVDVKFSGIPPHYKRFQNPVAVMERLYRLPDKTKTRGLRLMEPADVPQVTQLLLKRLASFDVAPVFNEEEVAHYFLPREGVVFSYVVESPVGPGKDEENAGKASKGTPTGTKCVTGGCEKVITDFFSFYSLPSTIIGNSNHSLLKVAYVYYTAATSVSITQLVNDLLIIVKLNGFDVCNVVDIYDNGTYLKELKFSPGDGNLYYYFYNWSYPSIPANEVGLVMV

| IC50 [1, 5] | IC50 ([2]; HuNMT-1) | IC50 [1, 6] | IC50 [2, 7] | IC50 [4] | Structure (SMILES) | ED50 (μM) T. brucei ([3]; T. brucei cell growth) | ED50 (μM) T. brucei [3, 8] | IC50 [1, 9] |
| --- | --- | --- | --- | --- | --- | --- | --- | --- |
| 0.082 µM | 1.37 µM |  |  |  | Cc1c(N(C)[S+](=O)([O-])c2ccc(CCCN3CCN(C)CC3)cc2)c(CC(C)C)nn1C [DDD90143] | 0.81 µM |  |  |
| 0.5 µM | > 1 µM |  |  |  | Cc1nn(C)c(C)c1N(C)[S+](=O)([O-])c1ccc(CCCC2CCN(Cc3ccccc3)CC2)cc1 [DDD90152] | >1 µM |  |  |
| 0.31 µM | > 1 µM |  |  |  | Cc1nn(C)c(C)c1N(C)[S+](=O)([O-])c1ccc(CCCC2CCN(C(C)C)CC2)cc1 [DDD90153] | >1 µM |  |  |
| 0.83 µM | 2.9 µM |  |  |  | Cc1nn(C)c(C)c1N(C)[S+](=O)([O-])c1ccc(CCCCCn2ccnc2)cc1 [DDD99735] | >1 µM |  |  |
| 0.005 µM | 0.021 µM |  |  |  | CCN(C)Cc1cccc(-c2ccc([S+](=O)([O-])Nc3c(CC(C)C)nn(C)c3C)cc2)c1 [DDD99741] | 0.047 µM |  |  |
| 2.1 µM | > 10 µM |  |  |  | Cc1nn(C)c(C)c1N(C)[S+](=O)([O-])c1ccc(CCCCN(C)C)cc1 [DDD99745] | >1 µM |  |  |
| 2 µM | > 10 µM |  |  |  | Cc1nn(C)c(C)c1N(C)[S+](=O)([O-])c1ccc(CCCCn2ccnc2)cc1 [DDD99746] | >1 µM |  |  |
| 0.45 µM | > 1 µM |  |  |  | Cc1nn(C)c(C)c1N(C)[S+](=O)([O-])c1ccc(CCCN(C)C)cc1 [DDD99749] | >1 µM |  |  |
| 0.16 µM | 3.8 µM |  |  |  | Cc1c(N[S+](=O)([O-])c2ccc(-c3cccc(CN4CCC(N(C)C)C4)c3)cc2)c(CC(C)C)nn1C (stereo not drawn) [DDD99821] | 0.59 µM |  |  |
|  |  | 1.4 µM | 2.3 µM |  | Cc1c(N[S+](=O)([O-])c2ccc(-c3cccc(CNCCc4ccccc4)c3)cc2)c(CC(C)C)nn1C [DDD100139] |  | >1 µM |  |
|  |  | 0.36 µM | 2.3 µM |  | Cc1c(N[S+](=O)([O-])c2ccc(-c3cccc(CNC4CCCC4)c3)cc2)c(CC(C)C)nn1C [DDD100146] |  | >1 µM |  |
|  |  | 0.014 µM | 2.4 µM |  | Cc1nn(C)c(C)c1N(CC(F)(F)F)[S+](=O)([O-])c1c(Cl)cc(CCCN2CCN(C)CC2)cc1Cl [DDD100149] |  | 0.132 µM |  |
|  |  | 1.3 µM | 4 µM |  | Cc1c(N[S+](=O)([O-])c2ccc(-c3cccc(CNCc4ccccc4)c3)cc2)c(CC(C)C)nn1C [DDD100150] |  | >1 µM |  |
|  |  | 0.014 µM | 1.7 µM |  | Cc1nn(C)c(C)c1N(CC(F)F)[S+](=O)([O-])c1c(Cl)cc(CCCN2CCN(C)CC2)cc1Cl [DDD100163] |  | 0.125 µM |  |
|  |  | 0.026 µM |  | 1.4 µM | Cc1c(N[S+](=O)([O-])c2ccc(-c3cccc(CNCc4cccnc4)c3)cc2)c(CC(C)C)nn1C [DDD100793] |  | 0.54 µM |  |
|  |  | 0.86 µM | > 1 µM | > 1 µM | Cc1c(N[S+](=O)([O-])c2ccc(-c3cccc(CN(C)Cc4cccnc4)c3)cc2)c(CC(C)C)nn1C [DDD100796] |  | >1 µM |  |
|  |  | 0.02 µM |  | 0.47 µM | Cc1c(N[S+](=O)([O-])c2ccc(-c3cccc(CNC(C)C)c3)cc2)c(CC(C)C)nn1C [DDD100799] |  | 0.293 µM |  |
|  |  | 0.004 µM |  | 0.011 µM | Cc1c(N[S+](=O)([O-])c2ccc(-c3ccc4c(c3)CNCC4)cc2)c(CC(C)C)nn1C [DDD100801] |  | 0.014 µM |  |

| IC50 [1, 5] | IC50 ([2]; HuNMT-1) | IC50 [1, 6] | IC50 [2, 7] | IC50 [4] | Structure (SMILES) | ED50 (μM) T. brucei ([3]; T. brucei cell growth) | ED50 (μM) T. brucei [3, 8] | IC50 [1, 9] |
| --- | --- | --- | --- | --- | --- | --- | --- | --- |
|  |  | 0.006 µM |  | 0.077 µM | Cc1c(N[S+](=O)([O-])c2ccc(-c3cccc(CN4CCCC4C)c3)cc2)c(CC(C)C)nn1C (stereo not drawn) [DDD100804] |  | 0.035 µM |  |
|  |  | 0.004 µM |  | 0.224 µM | Cc1c(N[S+](=O)([O-])c2ccc(-c3ccc(F)c(CN4CCCC4)c3)cc2)c(CC(C)C)nn1C [DDD100806] |  | 0.033 µM |  |
|  |  | 0.006 µM |  | 0.091 µM | Cc1c(N[S+](=O)([O-])c2ccc(-c3cccc(C(C)(C)N(C)C)c3)cc2)c(CC(C)C)nn1C [DDD100863] |  | 0.015 µM |  |
|  |  | 0.097 µM |  | 1.9 µM | Cc1c(N[S+](=O)([O-])c2ccc(-c3ccc(CN(C)C)cc3)cc2)c(CC(C)C)nn1C [DDD100865] |  | 7.3 µM |  |
|  |  | 0.01 µM |  | 0.054 µM | CCCCc1nn(C)c(C)c1N[S+](=O)([O-])c1ccc(-c2cccc(CN(C)C)c2)cc1 [DDD100866] |  | 3.2 µM |  |
|  |  | 0.006 µM |  | 0.074 µM | CCCc1nn(C)c(C)c1N[S+](=O)([O-])c1ccc(-c2cccc(CN(C)C)c2)cc1 [DDD100867] |  | 0.048 µM |  |
|  |  | 0.004 µM |  | 0.019 µM | Cc1c(N[S+](=O)([O-])c2ccc(-c3cccc(CNCCc4cccnc4)c3)cc2)c(CC(C)C)nn1C [DDD100869] |  | 5.7 µM |  |
|  |  | 7.95 µM | > 1 µM | > 1 µM | CCCc1nn(C)c(C)c1N[S+](=O)([O-])c1ccc(Br)cc1 [DDD100871] |  | 51.0 µM |  |
|  |  | 13.8 µM | > 1 µM | > 1 µM | Cc1nn(C)c(C)c1N[S+](=O)([O-])c1ccc(-c2cccc(-c3cn(C)cn3)c2)cc1 [DDD100873] |  | >1 µM |  |
|  |  | 0.74 µM | > 1 µM | > 1 µM | Cc1nn(C)c(C)c1N[S+](=O)([O-])c1ccc(-c2cccc(-c3nccn3C)c2)cc1 [DDD100874] |  | >1 µM |  |
|  |  | 2.68 µM | > 1 µM | > 1 µM | CCCCc1nn(C)c(C)c1N[S+](=O)([O-])c1ccc(Br)cc1 [DDD100875] |  | 20.5 µM |  |
|  |  | 0.006 µM |  | 0.059 µM | Cc1c(N[S+](=O)([O-])c2ccc(-c3ccc4c(c3)CN(C)CC4)cc2)c(CC(C)C)nn1C [DDD100876] |  | 0.014 µM |  |
|  |  | 0.262 µM | 2.4 µM | 0.906 µM | Cc1nn(C)c(C)c1N[S+](=O)([O-])c1ccc(-c2cccc(-c3nccn3C)c2)cc1 [DDD100878] |  | >1 µM |  |
|  |  | 0.803 µM | 2.6 µM | 1.59 µM | Cc1nn(C)c(C)c1N[S+](=O)([O-])c1ccc(-c2cccc(-c3c[nH]cn3)c2)cc1 [DDD100879] |  | >1 µM |  |
|  |  | 0.023 µM | > 1 µM | 0.672 µM | Cc1c(N[S+](=O)([O-])c2ccc(CCCCC3CCN(C)CC3)cc2)c(Cc2ccccc2)nn1C [DDD100883] |  | 0.427 µM |  |
|  |  | 1.08 µM | > 1 µM | > 1 µM | Cc1nn(C)c(C)c1N[S+](=O)([O-])c1ccc(-c2cccc(-c3ncc[nH]3)c2)cc1 [DDD100884] |  | >1 µM |  |
|  |  | 0.032 µM |  | 0.211 µM | Cc1c(N[S+](=O)([O-])c2ccc(-c3cccc(CN(C)C)c3)cc2)c(CCc2ccccc2)nn1C [DDD100885] |  | 9.72 µM |  |

| Structure (SMILES) | IC50 [1, 5] | IC50 ([2]; HuNMT-1) | IC50 [1, 6] | IC50 [2, 7] | IC50 [4] | ED50 (μM) T. brucei ([3]; T. brucei cell growth) | ED50 (μM) T. brucei [3, 8] | IC50 [1, 9] |
| --- | --- | --- | --- | --- | --- | --- | --- | --- |
| Cc1nn(C)c(C)c1N(C)[S+](=O)([O-])c1ccc(CCCC2CCN(CC3CC3)CC2)cc1 [DDD90155] | > 1 µM | > 1 µM |  |  |  | 4.0 µM |  |  |
| Cc1nn(C)c(C)c1N(C)[S+](=O)([O-])c1ccc(CCCn2ccnc2)cc1 [DDD99750] | > 1 µM | > 1 µM |  |  |  | >1 µM |  |  |
| CCc1nn(C)c(CC)c1NS(=O)(=O)c1c(Cl)cc(Br)cc1Cl [DDD99835] |  |  | 0.38 µM | > 1 µM |  |  | >1 µM |  |
| Cc1nn(C)c(C)c1N(CC(F)F)[S+](=O)([O-])c1c(Cl)cc(Br)cc1Cl [DDD100147] |  |  | 3.2 µM | > 10 µM |  |  | >1 µM |  |
| Cc1nn(C)c(C)c1N(CC(F)(F)F)[S+](=O)([O-])C1=C(Cl)C=C(CCCN2CCCNCC2)CC1Cl (stereo not drawn) [DDD100148] |  |  | 0.008 µM | 0.21 µM |  |  | 0.018 µM |  |
| Cc1nn(C)c(C)c1N(C(F)F)[S+](=O)([O-])c1c(Cl)cc(CCCCCCn2ccnc2)cc1Cl [DDD100156] |  |  |  | 1.1 µM | 0.048 µM |  | 0.148 µM | 0.016 µM |
| Cc1nn(C)c(C)c1N(C(F)F)[S+](=O)([O-])c1c(Cl)cc(CCCCCCn2ccnc2C(C)C)cc1Cl [DDD100791] |  |  |  | 2.1 µM | 0.044 µM |  | 0.344 µM | 0.21 µM |
| Cc1c(N[S+](=O)([O-])c2ccc(-c3ccccc3CN(C)C)cc2)c(CC(C)C)nn1C [DDD100862] |  |  | 0.358 µM |  | > 1 µM |  | >1 µM |  |
| Cc1c(N[S+](=O)([O-])c2ccc(Br)cc2)c(CCc2ccccc2)nn1C [DDD100880] |  |  | > 1 µM | > 1 µM | > 1 µM |  | 21.4 µM |  |
| Cc1c(N[S+](=O)([O-])c2ccc(CCCC3CCN(C)CC3)cc2)c(Cc2ccccc2)nn1C [DDD100881] |  |  | 0.02 µM |  | 0.778 µM |  | 0.234 µM |  |
| Cc1c(N[S+](=O)([O-])c2ccc(-c3cccc(CNCCc4ccccn4)c3)cc2)c(CC(C)C)nn1C [DDD100882] |  |  | 0.305 µM |  | > 1 µM |  | 2.45 µM |  |
